From publication PMC11642016 (International Journal of Molecular Sciences, 2024)
Where “and” joins values, the source holds several entries; their conditions need not be identical. Identical values can stand only once. Like-named read-outs stand apart in the source and are kept apart here. Values belong to the compound of their own block, whether it stands above or below them.

Tests used:
PANC-1 and Fadu cells = assay: CellTiter-Glo viability, statements covering both cancer cell lines; assay type: cell-based, human; details: for eradication of cancer cells at 8.3 µM: both PANC-1 and Fadu, first-set screening
Protocol: The effects of the synthesized compounds on cell viability were measured using the CellTiter-Glo® luminescent cell viability assay (Promega, Madison, WI, USA), according to the manufacturer’s instructions. […] After seeding, cells were incubated for a further 48 h before treatment. Cells were treated with the compounds for 72 h. […] After treatment, the luminescence signal was recorded using a microplate reader (BioTek Synergy 2 Multi-Mode Reader, BioTek, Winooski, VT, USA).

Fadu cells = assay: CellTiter-Glo luminescent cell viability assay, Fadu; details: for Cell Viability (% of Control) 2.8 µM / Cell Viability (% of Control) 8.3 µM / Cell Viability (% of Control) 25 µM: Fadu; for Cell Viability (% of Control) 2.8 µM / Cell Viability (% of Control) 8.3 µM / Cell Viability (% of Control) 25 µM / viability at 2.8 µM / viability at 8.3 µM / viability at 25 µM: mean ± SD, n = 2; for viability at 2.8 µM: read-out: Cell Viability (% of Control) 2.8 µM, Fadu; for viability at 8.3 µM: read-out: Cell Viability (% of Control) 8.3 µM, Fadu; for viability at 25 µM: read-out: Cell Viability (% of Control) 25 µM, Fadu
PANC-1 cells = assay: CellTiter-Glo luminescent cell viability assay, PANC-1; details: for Cell Viability (% of Control) 2.8 µM / Cell Viability (% of Control) 8.3 µM / Cell Viability (% of Control) 25 µM: PANC-1; for Cell Viability (% of Control) 2.8 µM / Cell Viability (% of Control) 8.3 µM / Cell Viability (% of Control) 25 µM / viability at 2.8 µM / viability at 8.3 µM / viability at 25 µM: mean ± SD, n = 2; for viability at 2.8 µM: read-out: Cell Viability (% of Control) 2.8 µM, PANC-1; for viability at 8.3 µM: read-out: Cell Viability (% of Control) 8.3 µM, PANC-1; for viability at 25 µM: read-out: Cell Viability (% of Control) 25 µM, PANC-1
[1] = CellTiter-Glo luminescent cell viability assay, primary fibroblasts; details: human, primary skin fibroblasts (non-tumorous), Primer fibroblast Cell viability (% of controll), 72 h, dose–response, individual replicates
[2] = test system: non-tumorous primary fibroblast cells; assay: as above; details: 72 h; for Primer fibroblast Cell viability (% of controll): dose–response, individual replicates
[3] = Homo sapiens, FaDu, 72 h, 72 h, first-set screening
[4] = Homo sapiens, FaDu, 72 h, 72 h, second-set screening
[5] = Homo sapiens, PANC-1, 72 h, 72 h, first-set screening
[6] = Homo sapiens, PANC-1, 72 h, 72 h, second-set screening
[7] = 0.7 μM, 72 h, dose–response, individual replicates
[8] = 1 μM, 72 h, dose–response, individual replicates
[9] = 2.3 μM, 72 h, dose–response, individual replicates
[10] = 3.4 μM, 72 h, dose–response, individual replicates
[11] = 5.1 μM, 72 h, dose–response, individual replicates
[12] = 7.7 μM, 72 h, dose–response, individual replicates
[13] = 17.3 μM, 72 h, dose–response, individual replicates
[14] = 26 μM, 72 h, dose–response, individual replicates

Structure (SMILES): NCC#Cc1cccc(CN2C(=O)C3=C(CCN(Cc4ccc(-n5cc(-[c-]6cccc6)nn5)cc4)C3)N3CCN=C23)c1.[Fe+2].c1cc[cH-]c1 [2a]
eradication of cancer cells at 8.3 µM (PANC-1 and Fadu cells): practically complete eradication of both types of cancer cells
Cell Viability (% of Control) 2.8 µM (Fadu cells; 72 h, first-set screening): 107 ± 5 % of Control
Cell Viability (% of Control) 2.8 µM (Fadu cells; 72 h, second-set screening): 114 ± 8 % of Control
Cell Viability (% of Control) 8.3 µM (Fadu cells; 72 h, first-set screening): 3 ± 0 % of Control
Cell Viability (% of Control) 8.3 µM (Fadu cells; 72 h, second-set screening): 56 ± 9 % of Control
Cell Viability (% of Control) 25 µM (Fadu cells; 72 h, first-set screening): 0 ± 0 % of Control
Cell Viability (% of Control) 25 µM (Fadu cells; 72 h, second-set screening): 0 ± 0 % of Control
Cell Viability (% of Control) 2.8 µM (PANC-1 cells; 72 h, first-set screening): 92 ± 2 % of Control
Cell Viability (% of Control) 2.8 µM (PANC-1 cells; 72 h, second-set screening): 117 ± 4 % of Control
Cell Viability (% of Control) 8.3 µM (PANC-1 cells; 72 h, first-set screening): 0 ± 0 % of Control
Cell Viability (% of Control) 8.3 µM (PANC-1 cells; 72 h, second-set screening): 92 ± 14 % of Control
Cell Viability (% of Control) 25 µM (PANC-1 cells; 72 h, first-set screening): 0 ± 0 % of Control
Cell Viability (% of Control) 25 µM (PANC-1 cells; 72 h, second-set screening): 0 ± 0 % of Control

Structure (SMILES): NCC#Cc1cccc(CN2C(=O)C3=C(CCN(Cc4ccc(-n5cc(-c6ccccc6)nn5)cc4)C3)N3CCN=C23)c1 [2b]
eradication of cancer cells at 8.3 µM (PANC-1 and Fadu cells): practically complete eradication of both types of cancer cells
viability at 25 µM (PANC-1 and Fadu cells; Homo sapiens, 25 µM, in either of the cancer cell lines, read-out: drop in viability at 25 µM): 0 to 1%
viability at 2.8 µM (Fadu cells; [3]): 102 ± 8%
viability at 2.8 µM (Fadu cells; [4]): 117 ± 7%
viability at 8.3 µM (Fadu cells; [3]): 0%
viability at 8.3 µM (Fadu cells; [4]): 27 ± 12%
viability at 25 µM (Fadu cells; [3]): 0%
viability at 25 µM (Fadu cells; [4]): 0%
viability at 2.8 µM (PANC-1 cells; [5]): 107 ± 1%
viability at 2.8 µM (PANC-1 cells; [6]): 113 ± 3%
viability at 8.3 µM (PANC-1 cells; [5]): 0%
viability at 8.3 µM (PANC-1 cells; [6]): 0%
viability at 25 µM (PANC-1 cells; [5]): 0%
viability at 25 µM (PANC-1 cells; [6]): 0%

IC50 (PANC-1 cells; Homo sapiens, PANC-1, 72 h, read-out: IC50 Value ± SEM PANC-1, 72 h treatment, best-fit values, n = 3): 2.6 ± 0.03 µM
IC50 (PANC-1 cells; Homo sapiens, PANC-1, read-out: PANC-1 IC50 values, Mean, mean of independently fitted replicate IC50 values (Supplement S.6)): 2.63 µM
Structure (SMILES): CNCC#Cc1cccc(CN2C(=O)C3=C(CCN(Cc4ccc(-n5cc(-c6cc(F)cc(F)c6)nn5)cc4)C3)N3CCN=C23)c1 [43c]
Fadu Cell viability (% of controll) (Fadu cells; [7]): 99 % of controll and 100 % of controll
Fadu Cell viability (% of controll) (Fadu cells; [8]): 102 % of controll and 93 % of controll
Fadu Cell viability (% of controll) (Fadu cells; [9]): 90 % of controll and 79 % of controll
Fadu Cell viability (% of controll) (Fadu cells; [10]): 79 % of controll and 59 % of controll and 42 % of controll
Fadu Cell viability (% of controll) (Fadu cells; [11]): 0 % of controll
Fadu Cell viability (% of controll) (Fadu cells; [12]): 0 % of controll
Fadu Cell viability (% of controll) (Fadu cells; [13]): 0 % of controll
Fadu Cell viability (% of controll) (Fadu cells; [14]): 0 % of controll
viability at 0.7 µM (Fadu cells; Homo sapiens, FaDu, 72 h, read-out: Fadu Cell viability (% of controll), 0.7 μM, 72 h, dose–response, individual replicates): 94%
viability at 1 µM (Fadu cells; Homo sapiens, FaDu, 72 h, read-out: Fadu Cell viability (% of controll), 1 μM, 72 h, dose–response, individual replicates): 97%
viability at 1.5 µM (Fadu cells; Homo sapiens, FaDu, 72 h, read-out: Fadu Cell viability (% of controll), 1.5 μM, 72 h, dose–response, individual replicates): 90%
viability at 2.3 µM (Fadu cells; Homo sapiens, FaDu, 72 h, read-out: Fadu Cell viability (% of controll), 2.3 μM, 72 h, dose–response, individual replicates): 89%
viability at 5.1 µM (Fadu cells; Homo sapiens, FaDu, 72 h, read-out: Fadu Cell viability (% of controll), 5.1 μM, 72 h, dose–response, individual replicates): 0%
viability at 7.7 µM (Fadu cells; Homo sapiens, FaDu, 72 h, read-out: Fadu Cell viability (% of controll), 7.7 μM, 72 h, dose–response, individual replicates): 0%
viability at 17.3 µM (Fadu cells; Homo sapiens, FaDu, 72 h, read-out: Fadu Cell viability (% of controll), 17.3 μM, 72 h, dose–response, individual replicates): 0%
viability at 26 µM (Fadu cells; Homo sapiens, FaDu, 72 h, read-out: Fadu Cell viability (% of controll), 26 μM, 72 h, dose–response, individual replicates): 0%
IC50 (Fadu cells; Homo sapiens, FaDu, 72 h, read-out: IC50 Value ± SEM Fadu, 72 h treatment, best-fit values, n = 3): 3.6 ± 0.09 µM
IC50 (Fadu cells; Homo sapiens, FaDu, read-out: Fadu IC50 values, Mean, mean of independently fitted replicate IC50 values (Supplement S.6)): 3.48 µM
Selectivity Index (SI) Fibroblast/Fadu (Fadu cells; ratio of mean best-fit IC50 for primary fibroblasts and best-fit IC50 for Fadu): 1.0
PANC-1 Cell viability (% of controll) (PANC-1 cells; [7]): 110 % of controll and 102 % of controll
PANC-1 Cell viability (% of controll) (PANC-1 cells; [8]): 99 % of controll and 105 % of controll
PANC-1 Cell viability (% of controll) (PANC-1 cells; 1.5 μM, 72 h, dose–response, individual replicates): 103 % of controll
PANC-1 Cell viability (% of controll) (PANC-1 cells; [9]): 80 % of controll and 82 % of controll
PANC-1 Cell viability (% of controll) (PANC-1 cells; [10]): 5 % of controll and 8 % of controll
PANC-1 Cell viability (% of controll) (PANC-1 cells; [11]): 0 % of controll
PANC-1 Cell viability (% of controll) (PANC-1 cells; [12]): 0 % of controll
PANC-1 Cell viability (% of controll) (PANC-1 cells; [13]): 0 % of controll
PANC-1 Cell viability (% of controll) (PANC-1 cells; [14]): 0 % of controll
viability at 0.7 µM (PANC-1 cells; Homo sapiens, PANC-1, 72 h, read-out: PANC-1 Cell viability (% of controll), 0.7 μM, 72 h, dose–response, individual replicates): 104%
viability at 1 µM (PANC-1 cells; Homo sapiens, PANC-1, 72 h, read-out: PANC-1 Cell viability (% of controll), 1 μM, 72 h, dose–response, individual replicates): 104%
viability at 1.5 µM (PANC-1 cells; Homo sapiens, PANC-1, 72 h, read-out: PANC-1 Cell viability (% of controll), 1.5 μM, 72 h, dose–response, individual replicates): 100%
viability at 2.3 µM (PANC-1 cells; Homo sapiens, PANC-1, 72 h, read-out: PANC-1 Cell viability (% of controll), 2.3 μM, 72 h, dose–response, individual replicates): 89%
viability at 3.4 µM (PANC-1 cells; Homo sapiens, PANC-1, 72 h, read-out: PANC-1 Cell viability (% of controll), 3.4 μM, 72 h, dose–response, individual replicates): 6%
viability at 5.1 µM (PANC-1 cells; Homo sapiens, PANC-1, 72 h, read-out: PANC-1 Cell viability (% of controll), 5.1 μM, 72 h, dose–response, individual replicates): 0%
viability at 7.7 µM (PANC-1 cells; Homo sapiens, PANC-1, 72 h, read-out: PANC-1 Cell viability (% of controll), 7.7 μM, 72 h, dose–response, individual replicates): 0%
viability at 17.3 µM (PANC-1 cells; Homo sapiens, PANC-1, 72 h, read-out: PANC-1 Cell viability (% of controll), 17.3 μM, 72 h, dose–response, individual replicates): 0%
viability at 26 µM (PANC-1 cells; Homo sapiens, PANC-1, 72 h, read-out: PANC-1 Cell viability (% of controll), 26 μM, 72 h, dose–response, individual replicates): 0%
Selectivity Index (SI) Fibroblast/PANC-1 (PANC-1 cells; ratio of mean best-fit IC50 for primary fibroblasts and best-fit IC50 for PANC-1): 1.4
viability at 72 h, 0.7 µM ([1]; 0.7 μM): 91%
viability at 72 h, 1 µM ([1]; 1 μM): 92%
viability at 72 h, 2.3 µM ([1]; 2.3 μM): 103%
viability at 72 h, 3.4 µM ([1]; 3.4 μM): 80%
viability at 72 h, 5.1 µM ([1]; 5.1 μM): 0%
viability at 72 h, 7.7 µM ([1]; 7.7 μM): 0%
viability at 72 h, 17.3 µM ([1]; 17.3 μM): 0%
viability at 72 h, 26 µM ([1]; 26 μM): 0%
Primer fibroblast Cell viability (% of controll) ([2]; 0.7 μM): 98 % of controll and 102 % of controll
Primer fibroblast Cell viability (% of controll) ([2]; 1 μM): 104 % of controll and 106 % of controll
Primer fibroblast Cell viability (% of controll) ([2]; 1.5 μM): 99 % of controll and 95 % of controll and 118 % of controll
Primer fibroblast Cell viability (% of controll) ([2]; 2.3 μM): 97 % of controll and 98 % of controll
Primer fibroblast Cell viability (% of controll) ([2]; 3.4 μM): 95 % of controll and 99 % of controll
Primer fibroblast Cell viability (% of controll) ([2]; 5.1 μM): 0 % of controll
Primer fibroblast Cell viability (% of controll) ([2]; 7.7 μM): 0 % of controll
Primer fibroblast Cell viability (% of controll) ([2]; 17.3 μM): 0 % of controll
Primer fibroblast Cell viability (% of controll) ([2]; 26 μM): 0 % of controll
IC50 ([2]; Homo sapiens, Fibroblast, read-out: IC50 Value ± SEM Primary Fibroblast, 72 h treatment, best-fit values, n = 3): 3.7 ± 1.73 µM
